The record followed here is PubChem BioAssay (NCI).

Test systems include IGROV1 ovarian; T-47D breast; UACC-62 melanoma; MOLT-4 leukemia; HOP-62 NSCLC; U251 CNS; HOP-92 NSCLC; RPMI-8226 leukemia; HCT-15 colon; 786-0 renal.
Holding throughout (assay): inhibition of tumour cell growth, NCI panel, 48 h

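Cultured in 96-well plates, cells were exposed to test compound for 48 hours across five concentrations. At the GI50, growth is halved. TGI denotes the concentration required for complete inhibition of growth.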

In the case of `NC(CCC(=O)O)C(=O)N1CCN(c2nc(N3CCCC3)c3nc(Cl)c(NCc4ccccc4)nc3n2)CC1` (stereo not drawn), the TGI is 40 µM in the test on IGROV1 ovarian; 21.3 µM with T-47D breast; 24.7 µM in the test with UACC-62 melanoma; 24.7 µM in the test with MOLT-4 leukemia; 28.4 µM with HOP-62 NSCLC; 30.2 µM in the test with U251 CNS. The TGI was found to be 32.2 µM in the test with HOP-92 NSCLC, 34.3 µM in the test with RPMI-8226 leukemia, 31 µM with HCT-15 colon and 25.9 µM in the test on 786-0 renal.

Regarding `O=c1c2cc(S(=O)(=O)O)ccc2nc(COc2ccc(Oc3ccc(Cl)cc3Cl)cc2)n1-c1ccc(Cl)cc1Oc1c(Cl)cccc1Cl`, the TGI was over 100 µM in the test on IGROV1 ovarian; over 100 µM in the test on T-47D breast; 48.9 µM in the test with UACC-62 melanoma; over 100 µM in the test with MOLT-4 leukemia; over 100 µM with HOP-62 NSCLC; 40.5 µM in the test on U251 CNS. Besides, the TGI in the test on HOP-92 NSCLC was found to be 47.1 µM; with RPMI-8226 leukemia, 64.7 µM; in the test with HCT-15 colon it was 56.6 µM; in the test on 786-0 renal, 64.6 µM.

For `Cc1ccccc1N=Nc1ccc(N/N=C2/CCCNC2=O)c(C)c1`, the TGI in the test on IGROV1 ovarian, in the test on T-47D breast, in the test on UACC-62 melanoma, in the test on MOLT-4 leukemia, with HOP-62 NSCLC and in the test with U251 CNS was over 100 µM each time. Moreover, the TGI in the test with HOP-92 NSCLC, with RPMI-8226 leukemia, in the test with HCT-15 colon and with 786-0 renal was over 100 µM each time.

Turning to `COc1cc(O)c2c(c1)OCC(Cc1ccc(O)cc1)C2=O` (stereo not drawn), the TGI in the test on IGROV1 ovarian, with T-47D breast, with UACC-62 melanoma, in the test on MOLT-4 leukemia, in the test on HOP-62 NSCLC and in the test with U251 CNS was over 100 µM throughout. The TGI in the test with HOP-92 NSCLC, in the test on RPMI-8226 leukemia, in the test with HCT-15 colon and in the test on 786-0 renal was over 100 µM throughout.

In the case of `C/C=C(/C)C(=O)O[C@H]1C[C@@H]2[C@@H](O)c3occ(C)c3C[C@]2(C)[C@@H](C)C1`, the TGI was 30.8 µM with IGROV1 ovarian; 30 µM in the test on T-47D breast; 27.2 µM in the test on UACC-62 melanoma; 37.1 µM in the test on MOLT-4 leukemia; 31.3 µM with HOP-62 NSCLC; 28.3 µM in the test on U251 CNS. In addition, the TGI in the test with HOP-92 NSCLC came to 31.4 µM; with RPMI-8226 leukemia, 76.5 µM; with HCT-15 colon, 44.3 µM; in the test with 786-0 renal, 29.7 µM.

Turning to `O=c1[nH]nc(Cc2ccccc2)[nH]1`, the TGI in the test with IGROV1 ovarian, in the test on T-47D breast, in the test with UACC-62 melanoma, in the test with MOLT-4 leukemia, with HOP-62 NSCLC and in the test with U251 CNS was over 100 µM throughout. Also, the TGI in the test with HOP-92 NSCLC, with RPMI-8226 leukemia, in the test with HCT-15 colon and in the test on 786-0 renal was over 100 µM each time.

`O=C(Cc1ccccc1)N/N=C/c1ccccc1O`: the TGI with IGROV1 ovarian is 81.8 µM; with T-47D breast it was over 100 µM; in the test on UACC-62 melanoma, 47.9 µM; in the test with MOLT-4 leukemia, over 100 µM; with U251 CNS, over 100 µM; in the test with HOP-92 NSCLC, 54.8 µM. The TGI in the test with RPMI-8226 leukemia, with HCT-15 colon and in the test with 786-0 renal was over 100 µM throughout.

`CC(C)=CC(=O)C[C@H]1C(=O)O[C@@H]2C[C@H]3C(C)=CC(=O)[C@@H](O)[C@]3(C)[C@H]3[C@@]4(O)OC[C@]32[C@@H]1[C@@H](C)[C@H]4O`: the TGI in the test with IGROV1 ovarian is 0.941 µM; in the test on T-47D breast, 0.144 µM; in the test with UACC-62 melanoma it was 0.443 µM; in the test with MOLT-4 leukemia, over 100 µM; in the test with HOP-62 NSCLC it was 1.8 µM; in the test with U251 CNS, 0.137 µM. The TGI was 0.328 µM in the test with HOP-92 NSCLC, 0.0447 µM in the test with RPMI-8226 leukemia, 0.907 µM with HCT-15 colon and 0.838 µM in the test with 786-0 renal.

Take `CC1ON2CCCC2[C@H]1C(=O)N1C2CC3CCC2(CS1(=O)=O)C3(C)C` (stereo partly drawn): the TGI in the test on IGROV1 ovarian, with T-47D breast, with UACC-62 melanoma, in the test with MOLT-4 leukemia, with HOP-62 NSCLC and in the test on U251 CNS was over 100 µM in each case. Moreover, the TGI with HOP-92 NSCLC, in the test on RPMI-8226 leukemia, in the test on HCT-15 colon and with 786-0 renal was over 100 µM each time.

On to `CCOP(=O)(O)C1C(CO)OC(n2ccc(=O)[nH]c2=O)C1O` (stereo not drawn), for which the TGI in the test on IGROV1 ovarian, in the test on T-47D breast, in the test with UACC-62 melanoma, in the test on MOLT-4 leukemia, in the test with HOP-62 NSCLC and with HOP-92 NSCLC was over 100 µM each time. In addition, the TGI with RPMI-8226 leukemia, in the test with HCT-15 colon and in the test with 786-0 renal was over 100 µM throughout.

Consider `COC(=O)C(COC(C)=O)NC(=O)/C=C/c1ccc(O)c(OC(C)=O)c1` (stereo not drawn), for which the TGI with IGROV1 ovarian, in the test with T-47D breast, in the test with UACC-62 melanoma, in the test with MOLT-4 leukemia, with HOP-62 NSCLC and in the test on U251 CNS was over 100 µM each time. In addition, the TGI in the test with HOP-92 NSCLC, in the test with RPMI-8226 leukemia, with HCT-15 colon and in the test on 786-0 renal was over 100 µM each time.

As for `O=C1O/C(=C(/Br)c2ccc(Cl)c(Cl)c2)c2ccccc21`, the TGI in the test with IGROV1 ovarian, in the test on T-47D breast, in the test on UACC-62 melanoma, in the test on MOLT-4 leukemia, in the test with HOP-62 NSCLC and in the test on U251 CNS was over 10 µM throughout. In addition, the TGI in the test with HOP-92 NSCLC, with RPMI-8226 leukemia, in the test with HCT-15 colon and with 786-0 renal was over 10 µM in each case.

As to `O=C1C(Cl)C(c2cccc(Cl)c2)N1c1ccc(-n2c(=S)[nH]c3ccccc3c2=O)cc1` (stereo not drawn), the TGI is 23.9 µM with IGROV1 ovarian; over 100 µM with T-47D breast; 31.5 µM in the test on UACC-62 melanoma; 37.6 µM in the test on MOLT-4 leukemia; 73.8 µM in the test with HOP-62 NSCLC; 27.9 µM in the test on U251 CNS. Besides, the TGI in the test with HOP-92 NSCLC stood at 94.5 µM; with RPMI-8226 leukemia, 55.6 µM; in the test with HCT-15 colon, 14.4 µM; in the test with 786-0 renal, 54.9 µM.

With `Cc1cccc2c(N)c3cccc(C(=O)NCC[N+](C)(C)Cc4c([N+](=O)[O-])ncn4C)c3nc12`, the TGI with IGROV1 ovarian is over 100 µM; in the test with T-47D breast, over 100 µM; in the test on UACC-62 melanoma it was over 100 µM; in the test with MOLT-4 leukemia it was over 100 µM; in the test on HOP-62 NSCLC, over 50.9 µM; with U251 CNS, over 100 µM. Besides, the TGI in the test on HOP-92 NSCLC is over 100 µM; in the test with RPMI-8226 leukemia, over 100 µM; in the test on HCT-15 colon, over 100 µM; with 786-0 renal, 37.2 µM.

As for `CCOC(=O)CN=C1NNS(=O)(=O)c2ccccc21`, the TGI in the test on IGROV1 ovarian, in the test on T-47D breast, in the test on UACC-62 melanoma, in the test with MOLT-4 leukemia, in the test with HOP-62 NSCLC and with U251 CNS was over 100 µM each time. The TGI in the test on HOP-92 NSCLC, with RPMI-8226 leukemia, in the test on HCT-15 colon and in the test with 786-0 renal was over 100 µM throughout.

Turning to `Cc1ccc(-c2c3nc(c(-c4ccc(C)cc4)c4ccc([nH]4)c(-c4ccc(OCC5COC(C)(C)O5)cc4)c4nc(c(-c5ccc(C)cc5)c5ccc2[nH]5)C=C4)C=C3)cc1` (stereo not drawn), the TGI in the test with IGROV1 ovarian is over 31.6 µM; in the test with T-47D breast, over 31.6 µM; in the test on MOLT-4 leukemia it was over 31.6 µM; in the test on HOP-62 NSCLC, over 31.6 µM; in the test on U251 CNS, over 31.6 µM; in the test on HOP-92 NSCLC, over 100 µM. Moreover, the TGI with RPMI-8226 leukemia was over 100 µM; in the test on HCT-15 colon it was over 31.6 µM; in the test on 786-0 renal, over 31.6 µM.

Take `CN1C2CCC1CC(CCNC(c1ccccc1)c1ccccc1)C2` (stereo not drawn): the TGI in the test with IGROV1 ovarian was over 100 µM; in the test with T-47D breast it was 72.2 µM; with MOLT-4 leukemia, over 100 µM; in the test with HOP-62 NSCLC, 50.9 µM; in the test on U251 CNS, over 100 µM; with HOP-92 NSCLC, 43.2 µM. For the same molecule, the TGI in the test with RPMI-8226 leukemia was 56.1 µM; in the test on HCT-15 colon it was over 100 µM; with 786-0 renal it was 41.4 µM.

Turning to `O=S1(=O)N(CCNc2nccc(-c3c(-c4cccc(O)c4)nc4sccn34)n2)CCN1Cc1ccccc1`, the GI50 was 6.65 µM in the test with IGROV1 ovarian; 5.16 µM with T-47D breast; 0.136 µM in the test on UACC-62 melanoma; 7.84 µM with MOLT-4 leukemia; 24.6 µM in the test on HOP-62 NSCLC; 8.21 µM in the test on U251 CNS. Moreover, the values for the GI50 in the test on HOP-92 NSCLC, in the test on RPMI-8226 leukemia and in the test with HCT-15 colon were 12.9 µM, 4.41 µM and 6.05 µM, respectively. In addition, the TGI in the test on IGROV1 ovarian is 43.6 µM; with T-47D breast it was 27 µM; in the test with UACC-62 melanoma, 5.29 µM; in the test with MOLT-4 leukemia, 40.3 µM; with HOP-62 NSCLC, over 50 µM; in the test on U251 CNS, over 50 µM. The TGI in the test with HOP-92 NSCLC is over 50 µM; in the test on RPMI-8226 leukemia, 14.3 µM; in the test on HCT-15 colon, 20.9 µM.

With `CC1=CC(=O)N(n2c(Cc3ccccc3)n[nH]c2=O)C1=O`, the TGI in the test on IGROV1 ovarian, in the test with T-47D breast, in the test with UACC-62 melanoma, with MOLT-4 leukemia, in the test on U251 CNS and with HOP-92 NSCLC was over 100 µM each time. For the same molecule, the TGI with RPMI-8226 leukemia, in the test on HCT-15 colon and in the test with 786-0 renal was over 100 µM each time.
